The source of these data is patent publication US12227539B2, “Mogroside compounds and uses thereof” (Firmenich SA, priority 2019, dated 2025).

A short description of experiment [1]: Tasting of a sample of the purified compound (taste perceived, sweetness relative to sucrose). The note with it: for sweetness relative to sucrose: approximate. From the text: The sweetness intensity perceived was weaker than the sweetness intensity perceived with mogroside V. However, the perception of licorice and lingering profile of isomogroside IVe was weaker than that of mogroside V (see table on following page).

Experiment [2] is described as follows: Sensory profile scores (Sweet, Licorice, Lingering) compared with mogroside V.
[3] abbreviates: tasted at 250 ppm in a water base.
Where [4] appears, read: tasted at a concentration of 250 ppm.

For the molecule `C[C@H](CC[C@@H](O[C@@H]1O[C@H](CO[C@@H]2O[C@H](CO[C@@H]3O[C@H](CO)[C@@H](O)[C@H](O)[C@H]3O)[C@@H](O)[C@H](O)[C@H]2O)[C@@H](O)[C@H](O)[C@H]1O[C@@H]1O[C@H](CO)[C@@H](O)[C@H](O)[C@H]1O)C(C)(C)O)[C@H]1CC[C@@]2(C)[C@@H]3CC=C4[C@@H](CC[C@H](O[C@@H]5O[C@H](CO[C@@H]6O[C@H](CO)[C@@H](O)[C@H](O)[C@H]6O)[C@@H](O)[C@H](O)[C@H]5O)C4(C)C)[C@]3(C)[C@H](O)C[C@]12C` [Compound 13a, (1S,4R,9beta,11alpha,24R)-1-{[6-O-(beta-D-glucopyranosyl)-beta-D-glucopyranosyl]oxy}-11,25-dihydroxy-9,10,14-trimethyl-4,9-cyclo-9,10-secocholest-5-en-24-yl beta-D-glucopyranosyl-(1→2)-[beta-D-glucopyranosyl-(1→6)-beta-D-glucopyranosyl-(1→6)]-beta-D-glucopyranoside], in experiment [1] (setting [3]), the “sweetness relative to sucrose” value is listed as 100-150 times sweeter than sucrose. In addition, the taste perceived result in experiment [1] (setting [4]) is listed as “moderate sweet taste”. In addition, in experiment [2] (250 ppm in a water base), the “sensory profile compared with mogroside V” value is “similar”. In experiment [2] (Dosage 250 ppm), this molecule returned a Licorice of 4.4, a Lingering of 4.2 and a Sweet of 4.6.
In the case of `C[C@H](CC[C@@H](O[C@@H]1O[C@H](CO)[C@@H](O)[C@H](O)[C@H]1O[C@@H]1O[C@H](CO)[C@@H](O)[C@H](O)[C@H]1O)C(C)(C)O)[C@H]1CC[C@@]2(C)[C@@H]3CC=C4[C@@H](CC[C@H](O[C@@H]5O[C@H](CO[C@@H]6O[C@H](CO)[C@@H](O)[C@H](O)[C@H]6O)[C@@H](O)[C@H](O)[C@H]5O)C4(C)C)[C@]3(C)CC[C@]12C` [Compound 15a, (1S,4S,9beta,24R)-1-{[6-O-(beta-D-glucopyranosyl)-beta-D-glucopyranosyl]oxy}-25-hydroxy-9,10,14-trimethyl-4,9-cyclo-9,10-secocholest-5-en-24-yl 2-O-beta-D-glucopyranosyl-beta-D-glucopyranoside], the “sweetness relative to sucrose” value in experiment [1] (tasted at 500 ppm in a water base) is 150-300 times sweeter than sucrose. For the same molecule, the taste perceived entry in experiment [1] (tasted at a concentration of 500 ppm in a water base) is listed as “strong sweet taste”. For the same molecule, in experiment [2] (500 ppm in a water base), the “sensory profile compared with mogroside V” value was “similar”. For the same molecule, in experiment [2] (Dosage 500 ppm), the Licorice was found to be 6.8, the Lingering was determined as 6.3 and the Sweet came to 7.0.
With isomogroside IVe, the “perception of licorice and lingering profile compared with mogroside V” value in experiment [2] (250 ppm in a water base) is “weaker”.
With `C[C@H](CC[C@@H](O[C@@H]1O[C@H](CO[C@@H]2O[C@H](CO)[C@@H](O)[C@H](O)[C@H]2O)[C@@H](O)[C@H](O)[C@H]1O[C@@H]1O[C@H](CO)[C@@H](O[C@@H]2O[C@H](CO)[C@@H](O)[C@H](O)[C@H]2O)[C@H](O)[C@H]1O)C(C)(C)O)[C@H]1CC[C@@]2(C)[C@@H]3CC=C4[C@@H](CC[C@H](O[C@@H]5O[C@H](CO[C@@H]6O[C@H](CO)[C@@H](O)[C@H](O)[C@H]6O)[C@@H](O)[C@H](O)[C@H]5O)C4(C)C)[C@]3(C)[C@H](O)C[C@]12C` [Compound 12a, (1S,4R,9beta,11alpha,24R)-1-{[6-O-(beta-D-glucopyranosyl)-beta-D-glucopyranosyl]oxy}-11,25-dihydroxy-9,10,14-trimethyl-4,9-cyclo-9,10-secocholest-5-en-24-yl beta-D-glucopyranosyl-(1→6)-[beta-D-glucopyranosyl-(1→4)-beta-D-glucopyranosyl-(1→2)]-beta-D-glucopyranoside], the “sweetness relative to sucrose” value in experiment [1] (setting [3]) is 50-100 times sweeter than sucrose. In addition, in experiment [1] (setting [4]), the taste perceived result was “moderate sweet taste”. The “sweetness intensity perceived compared with mogroside V” value in experiment [2] (250 ppm in a water base) is reported as “weaker”. For the same molecule, in experiment [2] (Dosage 250 ppm), the Licorice is 3.1, the Lingering amounted to 3.0 and the Sweet came to 3.4.
